Tests used:
[1] = molecular target: T1, Tyrosine-protein phosphatase non-receptor type 2 (Homo sapiens, UniProt P17706); test: Binding affinity for T-cell Protein tyrosine phosphatase (TCPTP)
T1 sequence (P17706 whole entry): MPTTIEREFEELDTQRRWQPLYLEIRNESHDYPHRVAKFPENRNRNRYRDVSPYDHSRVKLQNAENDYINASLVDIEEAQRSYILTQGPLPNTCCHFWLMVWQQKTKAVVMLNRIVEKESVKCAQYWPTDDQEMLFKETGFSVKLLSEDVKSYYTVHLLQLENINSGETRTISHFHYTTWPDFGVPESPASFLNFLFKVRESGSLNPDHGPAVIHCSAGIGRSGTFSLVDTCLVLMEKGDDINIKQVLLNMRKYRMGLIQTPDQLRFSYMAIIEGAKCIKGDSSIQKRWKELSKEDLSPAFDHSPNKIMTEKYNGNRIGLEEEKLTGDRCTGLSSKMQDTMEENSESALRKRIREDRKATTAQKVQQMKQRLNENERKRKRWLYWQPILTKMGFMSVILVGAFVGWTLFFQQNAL

[2] = molecular target: T2, Tyrosine-protein phosphatase non-receptor type 1 (Mus musculus, UniProt P35821); test: Binding affinity for mouse protein-tyrosine phosphatase 1B (PTP1B) expressed in COS 7 cells; format: cell-based
T2 sequence (P35821 whole entry): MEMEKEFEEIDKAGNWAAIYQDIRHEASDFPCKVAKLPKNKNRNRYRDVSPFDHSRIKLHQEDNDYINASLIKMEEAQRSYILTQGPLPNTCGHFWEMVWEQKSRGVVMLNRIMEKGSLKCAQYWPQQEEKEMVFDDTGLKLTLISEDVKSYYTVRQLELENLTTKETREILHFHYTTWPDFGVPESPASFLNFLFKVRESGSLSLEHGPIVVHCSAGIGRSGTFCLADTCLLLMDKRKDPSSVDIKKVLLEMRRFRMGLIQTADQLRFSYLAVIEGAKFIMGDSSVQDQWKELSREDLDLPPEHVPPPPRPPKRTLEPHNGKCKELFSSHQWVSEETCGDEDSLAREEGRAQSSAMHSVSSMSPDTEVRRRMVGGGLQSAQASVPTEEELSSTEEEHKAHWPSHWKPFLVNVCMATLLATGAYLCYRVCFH

Structure (SMILES)	Ki [1] [µM]	Ki [2] [µM]
COC(=O)c1c(O)cccc1OCCCc1cccc(-c2cc(C(=O)O)no2)c1		23
COC(=O)c1c(O)cccc1OCC(=O)Nc1cccc(-c2cc(C(=O)O)no2)c1		216
COC(=O)c1c(O)cccc1OCCNc1cccc(-c2cc(C(=O)O)no2)c1		60.3

Second part, the molecule after the results:

Ki [1] [µM]	Ki [2] [µM]	Structure (SMILES)
19.2	0.92	COC(=O)c1c(O)cccc1OC/C=C/c1cccc(-c2onc(C(=O)O)c2CO)c1
	11.5	COC(=O)c1c(O)cccc1OC/C=C/c1ccc2c(c1)-c1onc(C(=O)O)c1CC2
	2.1	COC(=O)c1c(O)cccc1OC/C=C/c1cccc(-c2onc(C(=O)O)c2N)c1
	122	COC(=O)c1c(O)cccc1OCC(O)Cc1cccc(-c2cc(C(=O)O)no2)c1 (stereo not drawn)

— ChEMBL document CHEMBL1138021, “Isoxazole carboxylic acids as protein tyrosine phosphatase 1B (PTP1B) inhibitors” (Bioorg Med Chem Lett, 2004)
